# Experimental data reported in patent US20210301038A1, “POLYSIALIC ACID AND DERIVATIVES THEREOF, PHARMACEUTICAL COMPOSITION AND METHOD OF PRODUCING POLYSIALIC ACID” (Medizinische Hochschule Hannover (MHH), priority 2018, published 2021).
# Tests used:
# [1] = tested on: NMDAR-mediated currents; details: cultured hippocampal neurons; cited from earlier work
# [2] = tested on: NMDAR-EPSCs (GluN1/GluN2B receptors); experiment: Evoked NMDAR-EPSCs, whole-cell patch-clamp of layer V pyramidal neurons in sham- or endoNF-treated mPFC slices; type: cell-based, mouse; details: endoNF-treated mPFC slices; DP1 10 μg/ml; DP5 1 μg/ml and 10 μg/ml
# Source text: Each mouse was quickly sacrificed by cervical dislocation. After decapitation, the brain was rapidly removed from the skull and placed in ice-cold artificial cerebrospinal fluid (aCSF) equilibrated with 95% O2/5% CO2, which was composed of the following (in mM): 250 sucrose, 24 NaHCO3, 25 glucose, 2.5 KCl, 1.25 NaH2PO4, 2 CaCl2, and 1.5 MgCl2 (osmolarity 345-350 mOsm/kg, pH 7.4). Using a VT1200S vibratome (Leica, Nussloch, Germany), coronal slices containing the prelimbic and infralimbic cortices (1.9-1.3 mm anterior to bregma) were cut 350 μm or 400 μm thick, for patch clamp and extracellular recordings, respectively, in the same sucrose-containing aCSF. Then, the slices were transferred to a slice holding chamber filled with recording aCSF (osmolarity 300-305 mOsm/kg, pH 7.4) that contained 120 mM NaCl instead of sucrose (Eckhardt et al., 2000) and was continuously gassed with 95% O2/5% CO2.
# For endoNF treatment in C57BL/6J mice, slices were first allowed to recover for 20 min at room temperature (22-24° C.) in recording aCSF and were then placed in a 24-well plate to be incubated in 2 ml of aCSF without (sham) or with addition of endoNF (10 μg/ml) at 35° C. for 2 hours. The 24-well plate was installed in a water bath (ED, Julabo, Seelbach, Germany). For field excitatory postsynaptic potential (fEPSP) recordings in knockout and transgenic mice, mPFC slices were incubated in recording aCSF for >2 hours at room temperature before recordings. For patch-clamp recordings in knockout mice, slices were incubated first at 35° C. for 20 min and then at room temperature for >30 min before recordings started. The aCSF was continuously gassed with 95% O2/5% CO2 during all incubation steps and recordings.
# For whole-cell patch-clamp recordings, layer V pyramidal neurons were visualized using a SliceScope Pro 6000 equipped with a 40× water-immersion objective and infrared differential interference contrast microscopy (Scientifica, Uckfield, UK). Pyramidal cells were identified by their triangular soma and long apical dendrites, and synaptically evoked excitatory postsynaptic currents (EPSCs) were recorded using patch pipettes (3-5 MQ) fabricated using borosilicate glass capillaries (wall thickness 0.315, length 100, outer diameter 1.5 mm, Hilgenberg) and a DMZ-Zeitz puller (Zeitz Instruments GmbH, Martinsried, Germany). The intracellular pipette solution contained the following (in mM): 140.7 Cs-methane-sulfonate, 5 NaCl, 1 MgCl2, 0.2 EGTA, 10 HEPES, 3 ATP-Mg, 0.3 Na-GTP, and 3.1 QX-314 (osmolarity 295 mOsm/kg, adjusted to pH 7.2 with CsOH). EPSCs were evoked by electrical pulses (0.2 ms) at 0.033 Hz via a glass pipette placed in layer II/III of the mPFC (identically to fEPSPs). Mixed EPSCs showing a fast AMPAR-mediated component and a slow NMDAR-mediated component were recorded at a −60 mV holding potential in whole-cell voltage-clamp mode in normal aCSF. The stimulation intensity was adjusted to evoke mixed EPSCs with amplitudes of approximately 300 pA. The slow NMDAR-mediated component of EPSCs was pharmacologically isolated at −60 mV in modified aCSF containing low Mg^2+ (0.1 mM) and high Ca^2+ (3.2 mM, for adjustment of divalent cation concentrations), the selective antagonist of α-amino-3-hydroxy-5-methyl-4-isoxazolepropionic acid (AMPA)/kainate receptors NBQX (10 μM), and the selective antagonist of γ-aminobutyric acid (GABA)B receptors CGP-55845 (2 μM) (Chen et al., 2003). The washout of Mg^2+ required at least 25 min. Recordings at a holding potential near the resting membrane potential allowed us to obtain stable NMDAR-EPSC recordings from pyramidal cells lasting for 1-1.5 hours. Series resistance (Rs, range 10-25 MΩ) was compensated (20-30%) and monitored continuously. Neurons in which Rs changed by more than 20% throughout the experiment were not included in the analysis. In voltage-clamp mode, membrane potential was not corrected for liquid junction potential. […]
# [3] = tested on: C57BL/6J mice with intra-mPFC endoNF injection; experiment: Novel object recognition test before and after intra-mPFC endoNF injection; type: in vivo, mouse; details: 30 min before encoding; sarcosine 600 mg/kg i.p. (d2); DP12 (d5) and DP1 (d6) 1 mg/kg intranasally
# Experimental: Guide cannulas were fabricated using stainless steel tubing with outer/inner diameter Ø 0.711/0.483 mm (Science Products, Germany). Dummy cannulas were made from entomological pins, size 2, Ø 0.41 mm (FST, Germany). Chronic implantation of cannulas into the mPFC in mice was performed as described previously for intrahippocampal injections (Kochlamazashvili et al., 2012; Senkov et al., 2015; Senkov et al., 2006).
# Acute injection of endoNF in vivo was done under a short isoflurane anesthesia. For intra-mPFC injection, we used a digitally controlled infusion system (UltraMicroPump, UMP3, and Micro4 Controller, WPI, USA) fed with a 10 μl-Hamilton syringe and NanoFil 135 μm (35 GA) beveled needle. The thin (135 μm) part of the needle went into the mouse brain during injection, whereas its thick part (430 μm) fit perfectly in the guide cannula (inside 483 μm). Injections were performed as follows: 1) a mouse was anesthetized with 1-3% isoflurane as during implantation; 2) it was put into the stereotaxic frame; 3) the dummy cannula was gently removed from the left guide cannula; 4) a NanoFil injecting needle was carefully placed inside of the guide cannula and advanced further down until reaching the marker (made with a permanent pen at the needle shank (430 μm) to visualize the point when the needle should reach the surface of the brain coming out of the guide cannula (equal to the length of guide cannula); 5) once the marker was reached, a slow (10 μm increment) step dial was used to deepen the needle into the brain; 6) endoNF (2 μg/μl) or vehicle was injected with the following settings: 250 nl per site as deep as 1.5 and 2.25 mm from the brain surface (total injection volume per hemisphere 500 nl, injection rate of 3 nl/s); 7) after injection was complete (˜5 min), the needle was left in the injection site for another 5 min and then gently removed; 8) the dummy cannula was then put back to its place; 9) the same procedure was performed for the right hemisphere. The whole injection process took approximately 20-25 min under isoflurane anesthesia, and the mice recovered rather quickly, starting to move in approximately 2-3 min after being returned to their home cages. Complete recovery of a mouse after such short anesthesia usually occurs within 3-5 min. After injection, mice were returned to their animal facility. Behavior experiments started on the day after injection at approximately the same time, so that we could perform cognitive tests 24 hours after injection.
# A white open field arena (50×50×30 cm) was used in the novel object recognition task. All behavior was video recorded and analyzed automatically by software (ANY-maze, version 4.99, Stoelting Co., Wood Dale, Ill.). […]
# [4] = tested on: 5×FAD mice; experiment: Recency test (increased difficulty) in 5×FAD mice; type: in vivo, mouse; details: intranasal, 0.5 mg/kg DP12 or equimolar, 2 hours before test; 90 min intervals
# Experimental: The recency test comprised of two encoding phases followed by a retrieval phase (modified from Nelson et al., 2011). The interval between the encoding phases was 1 h, and the interval between the second encoding phase and the retrieval phase was 10 min, except for experiments in 5×FAD mice when both intervals were 90 min to make the task more difficult. In the first encoding phase, animals were placed into the open field arena and allowed to explore a pair of identical objects for 10 min. Then, a different pair of identical objects was presented in the second encoding phase (10 min total exploration time). During the retrieval phase, two different objects, one object from each encoding phase, were placed into the apparatus and animals were given 10 min to explore them.
# Animals were randomly assigned to treatment groups using a randomized block design to counterbalance differences in age. The time of the day when tests were performed for different animals was also counterbalanced between treatment groups using a randomized block design. All measurements and statistical analyses were performed performed blindly, i.e. the tubes containing drugs/vehicle were coded. Exploration was defined as the animal approaching the object at a distance of less than 2 cm. The animal climbing onto the object with both hind- and forelimbs was not considered as exploration. In the same trial, objects were counterbalanced, and between trials, the placements of novel and familiar objects were changed. The objects used in the novel object recognition test were not employed in the recency test. Novelty detection was evaluated by calculating the discrimination ratio as follows: [novel object time−familiar object time]/[novel object time+familiar object time]×100%. In the recency test, the discrimination ratio was calculated as follows: [least recent object time−most recent object time]/[least object time+most recent object time]×100%. Unreliable measurements (about 10%), when animals spent in total ≤10 s near to both objects, were excluded from analysis.
# As the recency test was consistently used for analysis of DP12 effects in other mouse models, it was further investigated whether 13- to 14-month-old 5×FAD mice are impaired in this form of memory. In this series of experiments, the intervals between each session during recency test were increased to 90 min to increase the difficulty to recall the temporal order of the two objects shown in the arena (FIG. 12(A)). […] To verify whether DP12 or avDP10-9OAc may improve cognitive function in the 5×FAD model of AD, these compounds or a vehicle (H2O) were intranasally delivered in the same cohort of 5×FAD mice before multiple recency test sessions (separated by 4 day-interval). The numbers of mice in each treatment group during one session were counterbalanced and each mouse received in a random order both drugs and the vehicle. […] In contrast, vehicle-treated 5×FAD mice explored the two objects equally (FIG. 12(C)).
# [5] = tested on: dissociated hippocampal cultures (primary neural cells); experiment: MTT assay of neural cell viability; type: cell-based, mouse; details: 30 to 1000 nM, 48 hours, from 10th day in vitro; DP10 effect at 30, 100 and 300 nM
# Experimental: Primary hippocampal cells were dissociated from embryonic mice on embryonic day 18. To prepare the primary neural cultures, pregnant C57/BL6J mice were sacrificed by cervical dislocation. Embryos were decapitated, and the hippocampi isolated from brains under sterile conditions and dissected. Enzymatic digestion by 0.25% trypsin/EDTA solution was followed by separation of the cells in serum-containing medium via trituration (10 passes, 1 ml pipette). The primary cells were seeded onto 96-well plates coated with 100 μg/ml poly-lysine and 20 μg/ml laminin. The plating density was 20,000 cells per well. First, 200 μl Dulbecco's modified Eagle's medium (DMEM) was applied per well (supplemented with 1% penicillin-streptomycin and 1% L-glutamine and 2% B27). After incubation for 2 h at 37° C./5% CO2, the medium was exchanged with the pre-warmed Neurobasal medium including 1% penicillin-streptomycin, 1% L-glutamine, and 2% B27. The cells—predominantly neurons and astrocytes—were incubated at 37° C. in 5% CO2 humidified atmosphere for 10 days before administration of reagents.
# The assay was performed as described elsewhere with minor modifications (Khalid et al., 2018). Primary neural cells (see above) grown in a 96-well plate were exposed to drugs/vehicles for 48 h at 37° C./5% CO2. After aspiration of culture media, a washing was done with 100 μl phosphate buffered saline (PBS, pH=7.2). Then, PBS was completely removed, and 100 μl phenol red-free pre-warmed Neurobasal media and 50 μl MTT solution (3-(4,5-dimethylthiazol-2-yl)-2,5-diphenyltetrazolium bromide, 5 mg/ml; dissolved in PBS) were added to each well and plates were incubated for 4 h in an incubator. […] DMSO destroyed the cells and released the formazan, which was detected by optical density value at 560 nm, measured using a plate reader. Optical density values for wells containing cells were corrected by subtracting values measured in cell-free wells prepared and treated in the same way as wells containing control cells.
Compound,inhibition of NMDAR-mediated currents [1],effect on the amplitude of NMDAR-EPSCs [2],novel object recognition after intra-mPFC endoNF injection [3],exploration of least recent versus most recent object in the retrieval phase [4],object discrimination (discrimination ratio) compared to vehicle [4],effect on neural cell viability [5]
"CC(=O)N[C@H]1[C@H]([C@H](O)[C@H](O)CO)OC(O)(C(=O)O)C[C@@H]1O (stereo partly drawn) [DP1, N-acetylneuraminic acid]",do not inhibit,no effect,no effect,–,–,–
(α(2→8)Neu5Ac)10 [DP10],–,–,–,preference for the least recently explored object,significantly better in object discrimination,strong potentiating effect
